Format in all cases: in vivo, male Chunky broiler chickens
A short description of assay [1]: Rearing test: body weight, weight gain, feed intake and feed conversion ratio. The note with it: for Feed conversion ratio: feed intake/weight gain.
Assay [2] relates to bacteria belonging to the genus Lactobacillus. Kind of assay: Intestinal flora: number of Lactobacillus cells in ileum content of reared broiler chickens. The following applies: ileum content at 24 days old.
In assay [3] the test system is Welch bacillus (Clostridium perfringens). The following applies: ileum content at 24 days old, average of stocking densities 11 and 14 individuals/m^2, * = significant vs control (p<0.05).
A short description of assay [4]: Rearing test: uniformity of body weight (coefficient of variation). The following applies: body weights of individual chickens at 42 days old; (standard deviation/average)×100.
Where [5] appears, read: from 0 day old to 42 days old (entire rearing period).
[6] abbreviates: from 0 day old to 42 days old (entire rearing period), listed as trehalose group.
The mark [7] stands for this setting: from 35 days old to 42 days old (finishing period).
[8] abbreviates: from 35 days old to 42 days old (finishing period), listed as trehalose group.

SMILES strings stand for the structures. Like-named read-outs stand apart in the source and are kept apart here. Marks after values point to notes of the source that are not given here.

`OC[C@H]1O[C@H](O[C@H]2O[C@H](CO)[C@@H](O)[C@H](O)[C@H]2O)[C@H](O)[C@@H](O)[C@@H]1O` [Trehalose group, α,α-trehalose]: the values for the Average body weight in assay [1] (0 day old (start of rearing)), in assay [1] (35 days old) and in assay [1] (42 days old) were 41 g, 2621 g and 3251 g, respectively. The figures for the Feed intake in assay [1] (from 0 day old to 35 days old), in assay [1] (setting [5]) and in assay [1] (setting [7]) were 3458 g, 4756 g and 1320 g, respectively. Moreover, the Weight gain in assay [1] (from 0 day old to 35 days old) is on record as 2580 g; in assay [1] (setting [5]) it was 3210* g; in assay [1] (setting [6]), 3210 g; in assay [1] (setting [7]), 630* g; in assay [1] (setting [8]) it was 630 g. Moreover, the Feed conversion ratio is recorded as 1.340 in assay [1] (from 0 day old to 35 days old); 1.482* in assay [1] (setting [5]); 1.482 in assay [1] (setting [6]); 2.095* in assay [1] (setting [7]); 2.095 in assay [1] (setting [8]). Also, the “Number of microbial cells, Lactobacillus spp.” value in assay [2] is on record as 10.2 × 10^7 cells/g; in assay [2] (listed as trehalose group) it was 10.2×10^7 cells/g. Further, the “Number of microbial cells, Clostridium perfringens” value is recorded as 0.37 × 10^2* cells/g in assay [3] and 0.37×10^2 cells/g in assay [3] (listed as trehalose group). This compound also registered a Coefficient of variation in assay [4] of 7.9%.
